The target of experiment [1] is T1, PspA (SynPspA, PspA wild type, slr1188) (Synechocystis sp. PCC 6803, UniProt P74717).
T1 construct: gene im30; 28 kDa band
In words: malachite-green phosphate release; ADP-Glo; bound nucleotide by HPLC-MS/MS. The format is biochemical. Conditions: 2 mM ATP, 4 mM MgCl2, 10 mM Tris-HCl pH 8.0, 37 °C.

The target in another experiment is T2, PspA α1–α5 (Synechocystis sp. PCC 6803, UniProt P74717).
T2 construct: gene im30; helix α0 removed (amino acids 1-23 in Methods; 'first 22 amino acids' in Results); 25 kDa band
In words: malachite-green phosphate release; ADP-Glo. Conditions: 2 mM ATP, 4 mM MgCl2, 10 mM Tris-HCl pH 8.0, 37 °C. The format is biochemical. For orientation: In ADP-Glo the light output rises with the ADP produced.

Experiment [2] has as its target T3, PspA (SynPspA, PspA wild type, slr1188) (Synechocystis sp. PCC 6803, UniProt P74717, R44K/E126Q/E179Q).
T3 construct: gene im30; 28 kDa band
In words: bound nucleotide by HPLC-MS/MS after washing; malachite-green ATPase. The class given is biochemical. As to conditions: 2 mM ATP, 4 mM MgCl2, 10 mM Tris-HCl pH 8.0, 37 °C, 24 h.

The next experiment has as its target T4, PspF(1–275) (EcoPspF) (Escherichia coli, UniProt P37344).
T4 construct: residues 1-275, E. coli BL21 (DE3), pET50(b)-derived plasmid, Ni-NTA purified
In words: ATPase activity. The format is biochemical. As to conditions: comparison ATPase.

Experiment [3] concerns the target T1, PspA (SynPspA, PspA wild type, slr1188). In words: inhibition of ATPase activity. The class given is biochemical. Conditions: high concentration needed; against ATP hydrolysis; non-hydrolysable analogue.
For experiment [4] the target is unchanged. In words: inhibition of ATPase activity. The format is biochemical. As to conditions: high concentration needed; against ATP hydrolysis; non-hydrolysable analogue. This is another data set of the same source.
Experiment [5] has the same target. Kind of experiment: cryo-EM structure of helical rods. The class given is binding. As to conditions: rods refolded with 2 mM ATP, 4 mM MgCl2; ADP modelled in weak density, incomplete occupancy; site near α3/α4 loop between four chains; 180, 200, 215, 235 Å rods.

Molecules are shown by their SMILES.

T1 sequence (P74717 entry or part of it): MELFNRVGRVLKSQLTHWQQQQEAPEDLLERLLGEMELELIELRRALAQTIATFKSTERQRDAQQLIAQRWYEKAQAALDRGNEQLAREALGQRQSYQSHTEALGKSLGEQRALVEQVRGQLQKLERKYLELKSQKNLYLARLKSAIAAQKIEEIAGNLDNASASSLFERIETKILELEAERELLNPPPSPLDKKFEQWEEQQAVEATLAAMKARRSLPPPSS
T2 sequence (P74717 entry or part of it): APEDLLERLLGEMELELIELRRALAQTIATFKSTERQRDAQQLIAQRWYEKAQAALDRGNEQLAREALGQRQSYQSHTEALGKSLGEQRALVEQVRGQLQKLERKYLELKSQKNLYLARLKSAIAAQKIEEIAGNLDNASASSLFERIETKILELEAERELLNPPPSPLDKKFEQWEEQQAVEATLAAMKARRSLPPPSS
T4 sequence (P37344 1-275): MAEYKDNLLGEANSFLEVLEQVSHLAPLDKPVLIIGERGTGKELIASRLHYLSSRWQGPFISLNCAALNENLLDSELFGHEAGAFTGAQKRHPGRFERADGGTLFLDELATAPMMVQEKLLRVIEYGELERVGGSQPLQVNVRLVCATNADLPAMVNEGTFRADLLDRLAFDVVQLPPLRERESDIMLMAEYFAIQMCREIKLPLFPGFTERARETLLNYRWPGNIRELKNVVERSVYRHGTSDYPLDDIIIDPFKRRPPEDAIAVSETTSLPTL
T3 sequence (P74717 entry or part of it R44K/E126Q/E179Q): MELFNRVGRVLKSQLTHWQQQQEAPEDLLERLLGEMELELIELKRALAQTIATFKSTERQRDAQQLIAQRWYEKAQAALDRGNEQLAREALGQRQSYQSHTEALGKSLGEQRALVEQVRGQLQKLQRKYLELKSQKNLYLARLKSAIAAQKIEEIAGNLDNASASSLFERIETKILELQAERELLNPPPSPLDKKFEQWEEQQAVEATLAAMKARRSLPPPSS

Turning to `Nc1ncnc2c1ncn2[C@@H]1O[C@H](COP(=O)(O)OP(=O)(O)OP(=O)(O)O)[C@@H](O)[C@H]1O` [ATP], in experiment [1], the “malachite-green phosphate release; ADP-Glo; bound nucleotide by HPLC-MS/MS” value is “PspA can bind and hydrolyze ATP”. The “malachite-green phosphate release; ADP-Glo” value at PspA α1–α5 was “did not significantly reduce the ATPase activity”. For the same molecule, the “bound nucleotide by HPLC-MS/MS after washing; malachite-green ATPase” value in experiment [2] was “R44K/E126Q/E179Q mutant was still capable of ATP binding and hydrolysis”. Moreover, the ATPase activity result at PspF(1–275) (EcoPspF) is “approximately ten times lower than bona fide AAA+ ATPases, such as E. coli PspF”. With `Nc1ncnc2c1ncn2[C@@H]1O[C@H](COP(=O)(O)OP(=O)(O)OP(O)(O)=S)[C@@H](O)[C@H]1O` [ATPγS], the “ATPase activity vs ATPγS concentration” value in experiment [3] is “could be decreased by high concentrations of ATPase inhibitors such as ATPγS or AMPPCP”.

As for `Nc1ncnc2c1ncn2[C@@H]1O[C@H](COP(=O)(O)OP(=O)(O)CP(=O)(O)O)[C@@H](O)[C@H]1O` [AMPPCP], in experiment [4], the “ATPase activity vs AMPPCP concentration” value is “could be decreased by high concentrations of ATPase inhibitors such as ATPγS or AMPPCP”.

For `Nc1ncnc2c1ncn2[C@@H]1O[C@H](COP(=O)(O)OP(=O)(O)O)[C@@H](O)[C@H]1O` [ADP], in experiment [5], the “cryo-EM structure of helical rods” value is “Models of PspA apo (PDB:7ABK) and PspA+ATP with an ADP model fitted”.

(Values after article PMC11746142, “Structural plasticity of bacterial ESCRT-III protein PspA in higher-order assemblies” (Nature Structural & Molecular Biology, 2024).)
